Reference: patent publication US8101768B2, “Cyclic amine compound and pest control agent” (Nippon Soda Co., Ltd., priority 2004, dated 2012)

Experiments:
[1] = tested on: organophosphorous agent resistant two-spotted spider mites; assay: Effect on Two-spotted Spider Mite (spray on kidney bean leaves); type: in vivo; conditions: 125 ppm, water dispersible powder of Formulation Example 1 sprayed, 17 female adults, 25° C., 65% humidity, 3 days
In short: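 Kidney bean first leaves bearing 17 adult female organophosphate-resistant mites were sprayed with a water-dispersible powder formulation at 125 ppm. Held 3 days at 25 °C, 65% humidity, then adult mortality scored; run in duplicate.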

[2] = tested on: acaricide resistant citrus red mites; assay: Effect on Citrus Red Mite (spray on mandarin orange leaves); type: in vivo; conditions: 31 ppm, emulsifiable concentrate of Formulation Example 2 sprayed, 10 female adults, 25° C., 65% humidity
Method: Effect on Citrus Red Mite
10 female adults of acaricide resistant citrus red mites were inoculated onto leaves of a mandarin orange placed on dishes, onto which each of liquid agents, diluted with water so as to adjust the respective concentration of the chemical compounds to 31 ppm according to the formulation of the emulsifiable concentrate shown in the aforementioned Formulation Example 2, was sprayed by using a rotating sparge tower. After they were left in a thermostatic chamber at 25° C. in 65% humidity for 3 days, and were then removed from the dishes, eggs laid for 3 days were investigated whether they could grow to adults or not on the eleventh day. As the results, the following chemical compounds killed 100% of the adults. 1-13, 1-15, 1-22, 1-27, 1-45, 1-54, 1-59, 1-63, 1-66, 1-69, 1-71, 1-72, 1-75, 1-80, 1-88, 1-89, 1-92, 1-93, 1-94, 1-97, 1-98, 1-100, 1-102, 1-105, 1-108, 1-133, 1-136, 1-142, 1-153, 1-181, 1-183, 1-186, 1-187, 1-188, 1-189, 1-190, 1-191,

| SMILES | rate of killed adults [1] [%] | killed ... of the adults (eggs laid for 3 days investigated whether they could grow to adults on the eleventh day) [2] [%] |
| --- | --- | --- |
| CC=CCOc1cc(C(F)(F)F)ccc1OC1C2CCC1CN(c1ccc(C(F)(F)F)cn1)C2 (mixture of isomers) [5-175] | 100 | 100 |
| CCc1cc(Cl)ccc1OC1CCN(c2ccc(C(F)(F)F)cn2)CC1 [1-54] | 100 | 100 |
| COCc1cc(C(F)(F)F)ccc1OC1CCN(c2ccc(C(F)(F)F)cn2)CC1 [1-63] | 100 | 100 |
| CCOCc1cc(C(F)(F)F)ccc1OC1CCN(c2ccc(C(F)(F)F)cn2)CC1 [1-66] | 100 | 100 |
| CCOCOCc1cc(C(F)(F)F)ccc1OC1CCN(c2ccc(C(F)(F)F)cn2)CC1 [1-71] | 100 | 100 |
| COc1cc(C(F)(F)F)ccc1OC1CCN(c2ccc(C(F)(F)F)cn2)CC1 [1-88] | 100 | 100 |
| CCOc1cc(C(F)(F)F)ccc1OC1CCN(c2ccc(C(F)(F)F)cn2)CC1 [1-89] | 100 | 100 |
| CCCOc1cc(C(F)(F)F)ccc1OC1CCN(c2ccc(C(F)(F)F)cn2)CC1 [1-92] | 100 | 100 |
| CCCOc1cc(C(F)(F)F)ccc1OC1CCN(c2ccc(C(F)(F)F)cn2)C(C)C1 (centres unmarked) [1-93, 2-methyl-4-[2-propoxy-4-(trifluoromethyl)phenoxy]-1-[5-(trifluoromethyl)-2-pyridyl]piperidine] | 100 | 100 |
| CCCOc1cc(C(F)(F)F)ccc1OC1CCN(c2ccc(C)cn2)CC1 [1-94] | 100 | 100 |
| CCCOc1cc(C(F)(F)F)ccc1OC1CCN(c2ccc(C(F)(F)F)cn2)CC1C (centres unmarked) [1-98] | 100 | 100 |
| CC(C)Oc1cc(C(F)(F)F)ccc1OC1CCN(c2ccc(C(F)(F)F)cn2)CC1 [1-100] | 100 | 100 |
| CC(C)COc1cc(C(F)(F)F)ccc1OC1CCN(c2ccc(C(F)(F)F)cn2)CC1 [1-102] | 100 | 100 |
| FC(F)(Br)Oc1ccc(OC2CCN(c3ccc(C(F)(F)F)cn3)CC2)cc1 [1-136] | 100 | 100 |
| C=CCOc1cc(C(F)(F)F)ccc1OC1CCN(c2ccc(C(F)(F)F)cn2)CC1 [1-142] | 100 | 100 |
| CCCOc1cc(C(F)(F)F)ccc1OC1CCN(c2ccc(C(F)(F)F)cn2)CC1CC (centres unmarked) [1-186] | 100 | 100 |
| COC(C)OCc1cc(C(F)(F)F)ccc1OC1CCN(c2ccc(C(F)(F)F)cn2)CC1C (centres unmarked) [1-188] | 100 | 100 |
| CCCOc1cc(C(F)(F)F)ccc1OC1CCN(c2ccc(C(F)(F)F)cn2)CC1CCC (centres unmarked) [1-191] | 100 | 100 |
| FC(F)(F)c1ccc(N2C[C@H]3CC[C@@H](C2)[C@@H]3Oc2ccc(C(F)(F)F)cc2Br)nc1 [5-22] | 100 | 100 |
